# Experimental data reported in US8258162B2, “Catechol derivative, pharmaceutical composition containing the same, use of the catechol derivative, and use of the pharmaceutical composition” (Kissei Pharmaceutical Co., Ltd., priority 2008, dated 2012).
# Columns and labels:
# [1] = test system: rat cryopreserved hepatocytes; assay: Rat hepatocyte toxicities (cell viability, ATP activity); assay type: cell-based; details: concentration that shows 50% of the number of viable cells of control, 4 hours at 37° C.
# recombinant human COMT = target: T1, recombinant human COMT (Homo sapiens, UniProt P21964); assay: Human COMT inhibitory potency; assay type: biochemical; details: catechol substrate, [3H]-S-adenosyl-L-methionine, 37° C. 30 minutes
# T1 construct: GST (N, cleaved yes); made in house; host or cells: E. coli BL21 (DE3) Codon Plus RP, pGEX-2T vector
# T1 sequence (P21964 with tags, fused parts or gaps): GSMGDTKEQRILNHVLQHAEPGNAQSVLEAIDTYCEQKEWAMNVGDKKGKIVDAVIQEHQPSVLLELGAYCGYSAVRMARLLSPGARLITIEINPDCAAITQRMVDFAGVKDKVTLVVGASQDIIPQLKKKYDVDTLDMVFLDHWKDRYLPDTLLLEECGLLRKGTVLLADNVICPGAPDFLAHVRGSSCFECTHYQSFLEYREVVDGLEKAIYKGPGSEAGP
# [2] = test system: unilateral 6-hydroxydopamine-lesioned hemi-parkinsonian rats; assay: Potentiation of the efficacy of L-dopa in unilateral 6-hydroxydopamine-lesioned hemi-parkinsonian rats (turning behavior); assay type: in vivo, rat; details: 10 mg/kg oral with 5 mg/kg L-dopa and 30 mg/kg carbidopa; for Duration: duration of contralateral rotation response; for Total counts: summed contralateral rotation counts during drug action
# Rat liver COMT = assay: Inhibition of rat liver COMT activity after oral administration; details: 10 mg/kg oral, percentage of Control sample (100%); for Liver (COMT activity %) 1 hour: 1 hour after administration; for Liver (COMT activity %) 5 hours: 5 hours after administration
# Rat brain COMT = assay: Inhibition of rat brain COMT activity after oral administration; details: 10 mg/kg oral, percentage of Control sample (100%); for Brain (COMT activity %) 1 hour: 1 hour after administration; for Brain (COMT activity %) 5 hours: 5 hours after administration
IC50 (recombinant human COMT) [nM],Compound,EC50 [1] [nM],other results
–,N#Cc1cc(O)c(O)c([N+](=O)[O-])c1C(=O)N1CCCCC1 [Compound 1-43],> 300000,–
40.4,"O=C(c1ccccc1)c1ccc(O)c(O)c1[N+](=O)[O-] [compound 1, (3,4-dihydroxy-2-nitrophenyl)phenymethanone, reference compound]",–,–
8.6,N#Cc1cc(O)c(O)c([N+](=O)[O-])c1C(=O)c1ccno1 [Compound 1-37],–,–
8.9,COC(=O)c1cc(O)c(O)c([N+](=O)[O-])c1C(=O)c1ccccc1 [Compound 1-2],> 300000,Duration [2]: 452.9 min; Total counts [2]: 3569.0
7.1,CCOC(=O)c1cc(O)c(O)c([N+](=O)[O-])c1C(=O)c1ccno1 [Compound 1-15],–,–
4.7,CCOC(=O)c1cc(O)c(O)c([N+](=O)[O-])c1C(=O)c1nccs1 [Compound 1-18],–,–
9.5,COC(=O)c1cc(O)c(O)c([N+](=O)[O-])c1C(C)=O [Compound 1-20],> 300000,–
1180,"CCOC(=O)Oc1cc(C(=O)c2ccccc2)c(C(=O)c2ccccc2)c([N+](=O)[O-])c1OC(=O)OCC [compound 3, carbonic acid 4,5-dibenzoyl-2-ethoxycarbonyloxy-3-nitro-phenyl ester ethy ester, reference compound]",–,–
8.3,COC(=O)c1ccc(C(=O)c2c(C(=O)OC(C)C)cc(O)c(O)c2[N+](=O)[O-])cc1 [Compound 1-8],–,–
8.1,CCOC(=O)c1cc(O)c(O)c([N+](=O)[O-])c1C(=O)C(F)(F)F [Compound 1-23],–,–
6.8,"N#Cc1cc(O)c(O)c([N+](=O)[O-])c1C(=O)c1ccccc1F [Compound 1-29, 2-(2-fluorobenzoyl)-4,5-dihydroxy-3-nitrobenzonitrile]",–,–
9.7,Cc1ccc(C(=O)c2c(C#N)cc(O)c(O)c2[N+](=O)[O-])cc1 [Compound 1-27],> 300000,–
–,"Cc1ccc(C(=O)c2cc(O)c(O)c([N+](=O)[O-])c2)cc1 [Tolcapone, 3,4-dihydroxy-4′-methyl-5-nitro-benzophenone, reference compound]",–,Duration [2]: 430.0 min; Total counts [2]: 2578.7; Liver (COMT activity %) 1 hour (Rat liver COMT): 2.5%; Liver (COMT activity %) 5 hours (Rat liver COMT): 30.0%
7,CC(C)OC(=O)c1cc(O)c(O)c([N+](=O)[O-])c1C(=O)c1ccccc1C#N [Compound 1-9],–,–
7.8,"CCOC(=O)c1cc(O)c(O)c([N+](=O)[O-])c1C(=O)c1ccccc1 [Compound 1-1, Ethyl 2-benzoyl-4,5-dihydroxy-3-nitrobenzoate]",262000,Duration [2]: 522.5 min; Total counts [2]: 3188.3; Brain (COMT activity %) 1 hour (Rat brain COMT): 8.9%; Brain (COMT activity %) 5 hours (Rat brain COMT): 56.2%; Liver (COMT activity %) 1 hour (Rat liver COMT): 0.6%; Liver (COMT activity %) 5 hours (Rat liver COMT): 9.0%
8.6,Cc1cc(C(=O)c2c(C#N)cc(O)c(O)c2[N+](=O)[O-])no1 [Compound 1-38],> 300000,–
8.4,CCOC(=O)c1cc(O)c(O)c([N+](=O)[O-])c1C(=O)c1cccs1 [Compound 1-13],> 300000,Duration [2]: 461.4 min; Total counts [2]: 3395.7; Brain (COMT activity %) 1 hour (Rat brain COMT): 14.8%; Brain (COMT activity %) 5 hours (Rat brain COMT): 61.0%; Liver (COMT activity %) 1 hour (Rat liver COMT): 6.6%; Liver (COMT activity %) 5 hours (Rat liver COMT): 15.3%
4,CC(=O)c1ccc(C(=O)c2c(C(=O)OC(C)C)cc(O)c(O)c2[N+](=O)[O-])cc1 [Compound 1-7],–,–
8.1,N#Cc1cc(O)c(O)c([N+](=O)[O-])c1C(=O)C1CCCCC1 [Compound 1-34],> 300000,Brain (COMT activity %) 1 hour (Rat brain COMT): 62.2%; Brain (COMT activity %) 5 hours (Rat brain COMT): 78.7%; Liver (COMT activity %) 1 hour (Rat liver COMT): 0.0%; Liver (COMT activity %) 5 hours (Rat liver COMT): 1.0%
54,"O=C(c1ccccc1)c1cc(O)c(O)c([N+](=O)[O-])c1C(=O)c1ccccc1 [compound 2, (6-benzoyl-3,4-dihydroxy-2-nitrophenyl)phenylmethanone, reference compound]",–,–
